Test results as given in patent US20230227442A1, “HETEROALKYL DIHYDROQUINOLINE SULFONAMIDE COMPOUNDS” (AMGEN INC., priority 2020, published 2023).
Each block holds one compound with its values, some of them ahead of it.

What was measured:
[1] = molecular target: T1, Human Nav1.7 (Homo sapiens, UniProt Q15858); assay: Ionworks Barracuda (IWB) automated patch clamp assay; type: cell-based; conditions: population patch clamp, HEK cells, 4 min compound incubation at -20 mV; read-out: hNaV1.7 IWB-U IC50
T1 construct: expressed in transfected cells; host or cells: Spiking HEK cells (without Kir2.1 transfection)
T1 sequence (Q15858 whole entry): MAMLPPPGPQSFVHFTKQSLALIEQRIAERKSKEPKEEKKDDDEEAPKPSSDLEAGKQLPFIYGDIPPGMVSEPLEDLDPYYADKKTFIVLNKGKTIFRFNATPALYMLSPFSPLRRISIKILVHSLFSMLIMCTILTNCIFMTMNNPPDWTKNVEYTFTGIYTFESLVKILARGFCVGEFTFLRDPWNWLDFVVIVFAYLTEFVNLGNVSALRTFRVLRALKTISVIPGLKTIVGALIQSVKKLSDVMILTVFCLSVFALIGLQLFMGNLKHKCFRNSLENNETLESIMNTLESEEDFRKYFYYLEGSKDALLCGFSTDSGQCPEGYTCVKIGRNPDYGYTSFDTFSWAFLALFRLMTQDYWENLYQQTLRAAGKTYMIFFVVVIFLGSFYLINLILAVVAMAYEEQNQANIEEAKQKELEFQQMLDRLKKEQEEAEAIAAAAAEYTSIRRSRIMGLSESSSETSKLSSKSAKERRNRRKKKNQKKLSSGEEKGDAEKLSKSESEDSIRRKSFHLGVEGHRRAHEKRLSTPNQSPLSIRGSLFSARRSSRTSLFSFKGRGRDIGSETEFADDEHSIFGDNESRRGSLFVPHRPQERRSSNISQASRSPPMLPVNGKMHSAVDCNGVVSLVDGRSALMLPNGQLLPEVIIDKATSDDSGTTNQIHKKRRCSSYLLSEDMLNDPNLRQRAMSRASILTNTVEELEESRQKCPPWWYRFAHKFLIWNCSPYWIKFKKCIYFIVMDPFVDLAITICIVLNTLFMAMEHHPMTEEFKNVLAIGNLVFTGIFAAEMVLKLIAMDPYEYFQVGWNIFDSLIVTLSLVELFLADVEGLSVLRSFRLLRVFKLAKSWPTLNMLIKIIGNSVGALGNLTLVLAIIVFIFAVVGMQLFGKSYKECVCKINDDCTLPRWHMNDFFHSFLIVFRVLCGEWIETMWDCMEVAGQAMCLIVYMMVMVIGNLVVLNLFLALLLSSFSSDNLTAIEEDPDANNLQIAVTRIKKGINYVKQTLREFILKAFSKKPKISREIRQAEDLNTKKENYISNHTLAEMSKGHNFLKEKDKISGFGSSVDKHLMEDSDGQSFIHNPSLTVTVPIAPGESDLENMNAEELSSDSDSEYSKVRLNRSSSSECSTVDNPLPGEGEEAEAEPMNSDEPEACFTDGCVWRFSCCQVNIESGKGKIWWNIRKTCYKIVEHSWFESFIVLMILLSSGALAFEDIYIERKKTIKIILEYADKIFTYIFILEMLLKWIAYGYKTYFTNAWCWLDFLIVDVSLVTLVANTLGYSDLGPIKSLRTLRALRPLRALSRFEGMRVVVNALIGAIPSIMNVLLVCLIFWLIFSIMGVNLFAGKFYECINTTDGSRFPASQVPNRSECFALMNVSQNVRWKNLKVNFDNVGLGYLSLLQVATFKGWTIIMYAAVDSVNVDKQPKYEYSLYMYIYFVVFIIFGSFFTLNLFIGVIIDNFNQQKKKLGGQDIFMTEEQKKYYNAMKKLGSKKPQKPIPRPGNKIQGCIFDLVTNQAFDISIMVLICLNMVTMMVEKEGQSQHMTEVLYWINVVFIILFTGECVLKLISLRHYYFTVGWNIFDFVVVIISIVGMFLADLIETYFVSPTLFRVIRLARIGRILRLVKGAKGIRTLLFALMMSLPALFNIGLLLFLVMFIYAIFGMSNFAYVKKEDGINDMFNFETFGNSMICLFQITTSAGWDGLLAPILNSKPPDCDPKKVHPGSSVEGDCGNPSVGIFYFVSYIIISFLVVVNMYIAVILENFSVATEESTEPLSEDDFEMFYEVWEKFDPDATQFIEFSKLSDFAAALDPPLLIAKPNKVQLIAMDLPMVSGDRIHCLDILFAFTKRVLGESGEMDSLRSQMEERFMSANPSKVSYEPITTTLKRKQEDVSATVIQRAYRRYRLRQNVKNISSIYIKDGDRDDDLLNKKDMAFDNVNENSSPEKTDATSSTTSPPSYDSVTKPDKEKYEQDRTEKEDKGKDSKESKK
Protocol: Ionworks Barracuda Automated Patch Clamp Assay (Same Protocol for Both Human and Mouse)
Human Nav1.7 currents were recorded in population patch-clamp mode with the IWB automated electrophysiology system (Molecular Devices, LLC, Sunnyvale, Calif.). Spiking HEK cells (without Kir2.1 transfection) were cultured and prepared for recordings as previously described for IonWorks Quattro testing^1. The external solution consisted of the following (in mM): NaCl 140, KCl 5, CaCl2 2, MgCl2 1, HEPES 10, and glucose 11, pH 7.4, with N-methyl-D-glucamine at 320 mOsmol. The internal solution consisted of the following (in mM): KCl 70, KF 70, MgCl2 0.25, HEDTA 5, and HEPES 10, pH 7.25, with Nmethyl-D-glucamine, 300 mOsmol. From a holding potential of −110 mV, currents were elicited by a train of 26 depolarizations of 150 ms duration to −20 mV at a frequency of 5 Hz. Cells were then clamped to −20 mV for a period of 4 minutes in the presence of a single concentration of test compound. Following this compound incubation period, cells were clamped to −110 mV for three seconds to recover unbound channels and put through the same 26 pulse voltage protocol as above. Peak inward current during the 26th pulse to −20 mV in the presence of compound was divided by the peak inward current evoked by the 26th pulse to −20 mV in the absence of compound to determine percent inhibition. Concentration-response curves of percent inhibition as a function of concentration were generated to calculate IC50 values as described in Kornecook, T. J.; Yin, R.; Altmann, S.; et al. Pharmacologic Characterization of AMG8379, a Potent and Selective Small Molecule Sulfonamide Antagonist of the Voltage-Gated Sodium Channel NaV1. 7. J. Pharmacol. Exp. Ther. 2017, 362, 146-160.

[2] = test system: CYP3A4; assay: Human CYP 3A4 induction assay (mRNA, cryopreserved human hepatocytes); type: in vitro ADME; conditions: 72 hours, percent of control (POC); for CYP3A4 mRNA Induct Hu 2 uM POC: 2 uM test compound; for CYP3A4 mRNA Induct Hu 10 uM POC: 10 uM test compound
Protocol: Human CYP 3A4 Induction Assay
Cryopreserved human hepatocytes were seeded in 96-well collagen coated plates at 70,000 cells per well in hepatocyte plating media (HPM, final concentrations: lx Dulbecco's Modified Eagle's Medium, 0.1 μM dexamethasone, 10% fetal bovine serum, lx ITS, 1×PSG) followed by incubation at 37° C. under 5% CO2 and 90% relative humidity for 2 days to allow hepatocytes to form a confluent layer. On Day 3, hepatocytes were treated with either test compound or rifampin (20 μM, positive control for CYP3A induction) prepared in hepatocyte incubation media ((HIM, final concentrations: 1× William's Medium E, 0.1 μM dexamethasone, 1×ITS, 1×PSG). Treatment was performed for 72 hours with either 2 concentrations (2 μM or 10 μM) or a range of concentrations (0.001 μM to 100 μM) of the test compound to obtain full dose-response curve. Fresh media containing the relevant concentrations of the test compound was replaced every day until the samples were processed. After 72 hours of incubation, samples were processed for mRNA analysis using bDNA technology using manufacturer's instructions (Affymetrix, Fremont, Calif.). Cell viability was tested at the end of the experiment using MTT assay kit (Roche Diagnostics, Basel, Switzerland). Data was analyzed and presented as percent of control (POC) and Emax and EC50 obtained when appropriate according to guidance from Center for Drug Evaluation and Research (CDER), 2006, Guidance for Industry, Drug Interaction Studies—Study Design, Data Analysis, and Implications for Dosing and Labeling.
Cryopreserved human hepatocytes were seeded in 96-well collagen coated plates at 70,000 cells per well in hepatocyte plating media (HPM, final concentrations: lx Dulbecco's Modified Eagle's Medium, 0.1 μM dexamethasone, 10% fetal bovine serum, lx ITS, 1×PSG) followed by incubation at 37° C. under 5% CO2 and 90% relative humidity for 2 days to allow hepatocytes to form a confluent layer. On Day 3, hepatocytes were treated with either test compound or rifampin (20 μM, positive control for CYP3A induction) prepared in hepatocyte incubation media ((HIM, final concentrations: 1× William's Medium E, 0.1 μM dexamethasone, 1×ITS, 1×PSG). Treatment was performed for 72 hours with either 2 concentrations (2 μM or 10 μM) or a range of concentrations (0.001 μM to 100 μM) of the test compound to obtain full dose-response curve. Fresh media containing the relevant concentrations of the test compound was replaced every day until the samples were processed. After 72 hours of incubation, samples were processed for mRNA analysis using bDNA technology using manufacturer's instructions (Affymetrix, Fremont, Calif.). Cell viability was tested at the end of the experiment using MTT assay kit (Roche Diagnostics, Basel, Switzerland). Data was analyzed and presented as percent of control (POC) and Emax and EC50 obtained when appropriate, as described in Halladay, J. et al, 2012, An “all-inclusive” 96-well cytochrome P450 induction method: Measuring enzyme activity, mRNA levels, protein levels, and cytotoxicity from one well using cryopreserved human hepatocytes, Pharmacological and Toxicological Methods, 66:270-275.

Compound: COc1cc(O[C@@H](C)C(F)(F)F)c(F)cc1-n1c(=O)ccc2cc(S(=O)(=O)Nc3ccon3)c(F)cc21 (atropisomer, axis not shown; (P)) [Example 17, (P)-(S)-7-fluoro-1-(5-fluoro-2-methoxy-4-((1,1,1-trifluoropropan-2-yl)oxy)phenyl)-N-(isoxazol-3-yl)-2-oxo-1,2-dihydroquinoline-6-sulfonamide]
IC50 [1]: 27 nM
CYP3A4 mRNA Induct Hu 2 uM POC [2]: 16.3%
CYP3A4 mRNA Induct Hu 10 uM POC [2]: 39.8%

Compound: COc1cc(OCC(F)(F)F)c(Cl)cc1-n1c(=O)ccc2cc(S(=O)(=O)Nc3ccon3)ccc21 (atropisomer, axis not shown; (P)) [Example 15, (P)-1-(5-chloro-2-methoxy-4-(2,2,2-trifluoroethoxy)phenyl)-N-(isoxazol-3-yl)-2-oxo-1,2-dihydroquinoline-6-sulfonamide]
IC50 [1]: 23 nM
CYP3A4 mRNA Induct Hu 2 uM POC [2]: 7.7%
CYP3A4 mRNA Induct Hu 10 uM POC [2]: 20.2%

Compound: COc1cc(O[C@@H](C)C(F)(F)F)c(F)cc1-n1c(=O)ccc2cc(S(=O)(=O)Nc3ncccn3)ccc21 (atropisomer, axis not shown; (P)) [Example 24, (P)-(S)-1-(5-fluoro-2-methoxy-4-((1,1,1-trifluoropropan-2-yl)oxy)phenyl)-2-oxo-N-(pyrimidin-2-yl)-1,2-dihydroquinoline-6-sulfonamide]
IC50 [1]: 68 nM
CYP3A4 mRNA Induct Hu 2 uM POC [2]: 0.8%
CYP3A4 mRNA Induct Hu 10 uM POC [2]: 1.2%

Compound: COc1cc(SC(F)(F)F)c(F)cc1-n1c(=O)cc(F)c2cc(S(=O)(=O)Nc3ccon3)ccc21 [Example 11, P-4-fluoro-1-(5-fluoro-2-methoxy-4-((trifluoromethyl)thio)phenyl)-N-(isoxazol-3-yl)-2-oxo-1,2-dihydroquinoline-6-sulfonamide]
IC50 [1]: 10 nM
CYP3A4 mRNA Induct Hu 2 uM POC [2]: 7.3%
CYP3A4 mRNA Induct Hu 10 uM POC [2]: 48.1%

Compound: COc1cc(O[C@H](C)C(F)(F)F)c(F)cc1-n1c(=O)ccc2cc(S(=O)(=O)Nc3ccon3)c(F)cc21 (atropisomer, axis not shown; (P)) [Example 16, (P)-(R)-7-fluoro-1-(5-fluoro-2-methoxy-4-((1,1,1-trifluoropropan-2-yl)oxy)phenyl)-N-(isoxazol-3-yl)-2-oxo-1,2-dihydroquinoline-6-sulfonamide]
IC50 [1]: 24 nM
CYP3A4 mRNA Induct Hu 2 uM POC [2]: 3.9%
CYP3A4 mRNA Induct Hu 10 uM POC [2]: 7.2%

Further lines, results first:

IC50 [1]: 14 nM
CYP3A4 mRNA Induct Hu 2 uM POC [2]: 41.9%
CYP3A4 mRNA Induct Hu 10 uM POC [2]: 76.1%
Compound: COc1cc(CCC(F)(F)F)c(F)cc1-n1c(=O)ccc2cc(S(=O)(=O)Nc3ccon3)ccc21 (atropisomer, axis not shown; (P)) [Compound A, (P)-1-(5-fluoro-2-methoxy-4-(3,3,3-trifluoropropyl)phenyl)-N-(1,2-oxazol-3-yl)-2-oxo-1,2-dihydro-6-quinolinesulfonamide, reference compound]

IC50 [1]: 30 nM
CYP3A4 mRNA Induct Hu 2 uM POC [2]: 10.8%
CYP3A4 mRNA Induct Hu 10 uM POC [2]: 29.6%
Compound: COc1cc(OCCC(F)(F)F)c(F)cc1-n1c(=O)ccc2cc(S(=O)(=O)Nc3ccon3)ccc21 (atropisomer, axis not shown; (P)) [Example 20, (P)-1-(5-fluoro-2-methoxy-4-(3,3,3-trifluoropropoxy)phenyl)-N-(isoxazol-3-yl)-2-oxo-1,2-dihydroquinoline-6-sulfonamide]

IC50 [1]: 27 nM
CYP3A4 mRNA Induct Hu 2 uM POC [2]: 2.6%
CYP3A4 mRNA Induct Hu 10 uM POC [2]: 9.5%
Compound: COc1cc(O[C@@H](C)C(F)(F)F)c(F)cc1-n1c(=O)ccc2cc(S(=O)(=O)Nc3ccon3)ccc21 (atropisomer, axis not shown; (P)) [Example 18, (P)-(S)-1-(5-fluoro-2-methoxy-4-((1,1,1-trifluoropropan-2-yl)oxy)phenyl)-N-(isoxazol-3-yl)-2-oxo-1,2-dihydroquinoline-6-sulfonamide]

IC50 [1]: 15 nM
CYP3A4 mRNA Induct Hu 2 uM POC [2]: 6.1%
CYP3A4 mRNA Induct Hu 10 uM POC [2]: 24.5%
Compound: COc1cc(SC(F)(F)F)c(F)cc1-n1c(=O)ccc2cc(S(=O)(=O)Nc3ccon3)ccc21 (atropisomer, axis not shown; (P)) [Example 8, (P)-1-(5-fluoro-2-methoxy-4-((trifluoromethyl)thio)phenyl)-N-(isoxazol-3-yl)-2-oxo-1,2-dihydroquinoline-6-sulfonamide]

IC50 [1]: 11 nM
CYP3A4 mRNA Induct Hu 2 uM POC [2]: 0.2%
CYP3A4 mRNA Induct Hu 10 uM POC [2]: 0.2%
Compound: COc1cc(COC(F)(F)F)c(F)cc1-n1c(=O)ccc2cc(S(=O)(=O)Nc3ccon3)ccc21 (atropisomer, axis not shown; (P)) [Example 4, (P)-1-(5-fluoro-2-methoxy-4-((trifluoromethoxy)methyl)phenyl)-N-(isoxazol-3-yl)-2-oxo-1,2-dihydroquinoline-6-sulfonamide]

IC50 [1]: 11 nM
CYP3A4 mRNA Induct Hu 2 uM POC [2]: 3.4%
CYP3A4 mRNA Induct Hu 10 uM POC [2]: 7.5%
Compound: COc1cc(SCC(F)(F)F)c(F)cc1-n1c(=O)ccc2cc(S(=O)(=O)Nc3ccon3)ccc21 (atropisomer, axis not shown; (P)) [Example 5, (P)-1-(5-fluoro-2-methoxy-4-((2,2,2-trifluoroethyl)thio)phenyl)-N-(isoxazol-3-yl)-2-oxo-1,2-dihydroquinoline-6-sulfonamide]
